Assay results taken from patent publication US4423210A, “Intermediates for the preparation of 3-demethoxyfortimicins” (Abbott Laboratories, priority 1982, dated 1983).
Structures can show the parent of a compound that is named as a salt. Where two headings read alike, the source gives them in different places.

Assays:
Kleb. pneumoniae KY 4262 = experiment: in vitro antibiotic activity, two-fold agar dilution (MIC); assay type: cell-based; conditions: Klebsiella pneumoniae
Protocol: (§1) The in vitro activity of 3-demethoxyfortimicin A of Example 10 is determined by a two-fold dilution test using 10 ml. of Mueller-Hinton agar per Petri plate. The agar plates are innoculated with approximately 1×10^5 of the test organisms indicated in Table II, delivered to the agar surface by a Steers replicator. The innoculated plates are incubated for 24 hours at 35° C. in the presence of varying concentrations of 3-demethoxyfortimicin A tetrahydrochloride of Example 10 or fortimicin A sulfate as a comparative antibiotic.

Serratia marcescens 4003 = experiment: as above; assay type: cell-based
Protocol: as §1

Shigella sonnei 9290 = experiment: as above; assay type: cell-based; conditions: Mueller-Hinton agar, 24 hours, 35° C.
Protocol: as §1

Strep. faecalis 10541 = experiment: as above; assay type: cell-based
Protocol: as §1

Providencia 1577 = experiment: as above; assay type: cell-based
Protocol: as §1

[1] = tested on: Proteus mirabilis Fin. #9; experiment: as above; assay type: cell-based
Protocol: as §1

[2] = tested on: Pseudo. aeruginosa KY 8516; experiment: as above; assay type: cell-based; conditions: Pseudomonas aeruginosa
Protocol: as §1

Proteus rettgeri U6333 = experiment: as above; assay type: cell-based; conditions: Providencia rettgeri
Protocol: as §1

E. coli BL 3676 (Res) = experiment: as above; assay type: cell-based; conditions: Escherichia coli
Protocol: as §1

E. coli JUHL = experiment: as above; assay type: cell-based; conditions: Escherichia coli
Protocol: as §1

Proteus vulgaris JJ = experiment: as above; assay type: cell-based
Protocol: as §1

Staph. aureus Smith = experiment: as above; assay type: cell-based; conditions: Staphylococcus aureus
Protocol: as §1

[3] = tested on: Pseudo. aeruginosa KY 8512; experiment: as above; assay type: cell-based; conditions: Pseudomonas aeruginosa
Protocol: as §1

[4] = tested on: Pseudo. aeruginosa BMH #10; experiment: as above; assay type: cell-based; conditions: Pseudomonas aeruginosa
Protocol: as §1

[5] = tested on: Enterobacter aerogenes 13048; experiment: as above; assay type: cell-based
Protocol: as §1

Sal. typhimurium Ed. #9 = experiment: as above; assay type: cell-based, Salmonella typhimurium; conditions: Salmonella enterica
Protocol: as §1

Kleb. pneumoniae 10031 = experiment: as above; assay type: cell-based, Klebsiella pneumoniae
Protocol: as §1

Pseudo aeruginosa 27853 = experiment: as above; assay type: cell-based, Pseudomonas aeruginosa
Protocol: as §1

Pseudo. aeruginosa 209 = experiment: as above; assay type: cell-based, Pseudomonas aeruginosa
Protocol: as §1

E. coli 76-2 = experiment: as above; assay type: cell-based, Escherichia coli
Protocol: as §1

[6] = tested on: strains tested (Table II); experiment: overall antibiotic activity relative to fortimicin A sulfate; assay type: cell-based
Protocol: as §1

## CC(N)C1CCC(N)C(OC2C(N)C(O)CC(N(C)C(=O)CN)C2O)O1 (stereo not drawn) [3-Demethoxyfortimicin A tetrahydrochloride]
Kleb. pneumoniae KY 4262; KY4262, Kleb. pneumoniae KY 4262, Mueller-Hinton agar, 24 hours, 35° C., read-out: MIC
  MIC: 3.1 µg/mL
Serratia marcescens 4003; Serratia marcescens 4003, Mueller-Hinton agar, 24 hours, 35° C., read-out: MIC
  MIC: 1.56 µg/mL
Shigella sonnei 9290
  MIC: 3.1 µg/mL
Strep. faecalis 10541; Enterococcus faecalis, Strep. faecalis 10541, Mueller-Hinton agar, 24 hours, 35° C., read-out: MIC
  MIC: 25 µg/mL
Providencia 1577; Providencia 1577, Mueller-Hinton agar, 24 hours, 35° C., read-out: MIC
  MIC: 1.56 µg/mL
[1]; Proteus mirabilis Fin. #9, Mueller-Hinton agar, 24 hours, 35° C., read-out: MIC
  MIC: 3.1 µg/mL
[2]; KY8516, Pseudo. aeruginosa KY 8516, Mueller-Hinton agar, 24 hours, 35° C., read-out: MIC
  MIC: 3.1 µg/mL
Proteus rettgeri U6333; Proteus rettgeri U6333, Mueller-Hinton agar, 24 hours, 35° C., read-out: MIC
  MIC: 6.2 µg/mL
E. coli BL 3676 (Res); E. coli BL 3676 (Res), Mueller-Hinton agar, 24 hours, 35° C., read-out: MIC
  MIC: 25 µg/mL
E. coli JUHL; E. coli JUHL, Mueller-Hinton agar, 24 hours, 35° C., read-out: MIC
  MIC: 3.1 µg/mL
Proteus vulgaris JJ; Proteus vulgaris JJ, Mueller-Hinton agar, 24 hours, 35° C., read-out: MIC
  MIC: 3.1 µg/mL
Staph. aureus Smith; Staph. aureus Smith, Mueller-Hinton agar, 24 hours, 35° C., read-out: MIC
  MIC: 0.78 µg/mL
[3]; KY8512, Pseudo. aeruginosa KY 8512, Mueller-Hinton agar, 24 hours, 35° C., read-out: MIC
  MIC: 3.1 µg/mL
[4]; Pseudo. aeruginosa BMH #10, Mueller-Hinton agar, 24 hours, 35° C., read-out: MIC
  MIC: 0.78 µg/mL
[5]; Klebsiella aerogenes, Enterobacter aerogenes 13048, Mueller-Hinton agar, 24 hours, 35° C., read-out: MIC
  MIC: 3.1 µg/mL
Sal. typhimurium Ed. #9; Sal. typhimurium Ed. #9, Mueller-Hinton agar, 24 hours, 35° C., read-out: MIC
  MIC: 3.1 µg/mL
Kleb. pneumoniae 10031; Klebsiella pneumoniae, Kleb. pneumoniae 10031, Mueller-Hinton agar, 24 hours, 35° C., read-out: MIC
  MIC: 1.56 µg/mL
Pseudo aeruginosa 27853; Pseudomonas aeruginosa, Pseudo aeruginosa 27853, Mueller-Hinton agar, 24 hours, 35° C., read-out: MIC
  MIC: 6.2 µg/mL
Pseudo. aeruginosa 209; Pseudomonas aeruginosa, Pseudo. aeruginosa 209, Mueller-Hinton agar, 24 hours, 35° C., read-out: MIC
  MIC: 100 µg/mL
E. coli 76-2; Escherichia coli, 762, E. coli 76-2, Mueller-Hinton agar, 24 hours, 35° C., read-out: MIC
  MIC: 1.56 µg/mL
[6]; against many of the susceptible strains tested
  activity relative to that of fortimicin A sulfate: ~200%
[6]; overall, all strains of Table II
  overall activity relative to that of fortimicin A sulfate: approximately 137%

## COC1C(O)C(N)C(OC2OC(C(C)N)CCC2N)C(O)C1N(C)C(=O)CN (stereo not drawn) [Fortimicin A Sulfate, fortimicin A sulfate, reference compound]
Kleb. pneumoniae KY 4262; KY4262, 24 h
  MIC: 6.2 µg/mL
Serratia marcescens 4003; Serratia marcescens, 4003, 24 h
  MIC: 3.1 µg/mL
Shigella sonnei 9290
  MIC: 6.2 µg/mL
Strep. faecalis 10541; Enterococcus faecalis, 10541, 24 h
  MIC: 50 µg/mL
Providencia 1577; Providencia, 1577, 24 h
  MIC: 1.56 µg/mL
[1]; Proteus mirabilis, 24 h
  MIC: 3.1 µg/mL
[2]; KY8516, 24 h
  MIC: 6.2 µg/mL
Proteus rettgeri U6333; U6333, 24 h
  MIC: 12.5 µg/mL
E. coli BL 3676 (Res); 24 h
  MIC: 25 µg/mL
E. coli JUHL; 24 h
  MIC: 3.1 µg/mL
Proteus vulgaris JJ; Proteus vulgaris, 24 h
  MIC: 3.1 µg/mL
Staph. aureus Smith; 24 h
  MIC: 0.78 µg/mL
[3]; KY8512, 24 h
  MIC: 6.2 µg/mL
[4]; 24 h
  MIC: 0.78 µg/mL
[5]; Klebsiella aerogenes, 13048, 24 h
  MIC: 3.1 µg/mL
Sal. typhimurium Ed. #9; TYPHIMURIUM, 24 h
  MIC: 3.1 µg/mL
Kleb. pneumoniae 10031; Klebsiella pneumoniae, 10031, 24 h
  MIC: 1.56 µg/mL
Pseudo aeruginosa 27853; Pseudomonas aeruginosa, 27853, 24 h
  MIC: 12.5 µg/mL
Pseudo. aeruginosa 209; Pseudomonas aeruginosa, 209, 24 h
  MIC: 100 µg/mL
E. coli 76-2; Escherichia coli, 762, 24 h
  MIC: 3.1 µg/mL
